One may read the mortality as the share of the test organisms that died. Read a high mortality as fewer survivors.

Series [1] has as its system adult I. scapularis ticks. The series is described as follows: Treated-vial biocidal screening, residual challenge (Example 2). The note with it: treated vials sat 4 wk; arthropods added for final 24 h. The format is in vivo, Ixodes scapularis. The procedure: (§1) Samples of the compounds listed below Were obtained from Dr. Karchesy, a co-inventor, and screened for biocidal activities against nymphal Ixodes scapularis. In this example, 2% acetone solutions (wt./vol.) of the compounds were applied to inner surfaces of 2-dram friction cap vials. Vials and caps were treated then allowed to dry for a minimum of 4 hours before placing 10 nymphs in each container. These same vials were used to challenge additional nymphs and adult I. scapularis ticks and adult Xenopsylla cheopis fleas through five weeks to observe any possible residual activity.
(§2) Numbers in parentheses refer to length of treatment in terms of hours (h) or weeks (wk). Data is presented in terms of number killed/number tested. For test periods longer than 24 hours, the treated vials were allowed to sit for the stated period after drying (72 h, 4 wk, or 5 wk) and each group of arthropods was added to the vials for the final 24 h of the test period.

Series [2] has as its system adult Xenopsylla cheopis fleas. The description is as above. The format is in vivo. The note with it: treated vials sat 5 wk; arthropods added for final 24 h. The procedure: as §1, §2
For the next series, the system named is X. cheopis adults. Briefly: Flea bioassay, treated vials (Example 9). The format is in vivo. The note with it: 24 h exposure, 95% CI in parentheses. Here is the method: Flea Colonies. Adult X. cheopis fleas (1–3 wk old) were obtained from a colony founded more than eight years ago using adults received from Tom Schwan, Rocky Mountain Laboratories, Hamilton, Mont. The area from which these original adult fleas were obtained, and the resulting colony, have no known histories of pesticide exposure.
Tick and Flea Bioassays. Concentrations of the compounds were prepared by 2-fold serial dilutions of a 0.5% (wt:vol) solution of the extracts in acetone. […] A control treated with acetone only was run with each series. Tick and flea susceptibility was evaluated using a modified disposable pipette method. See, Barnard, D. R., et al., J. Econ. Entomol.
(§3) The inner surface of 2-dram friction cap vials were treated with the compound/acetone solution, or acetone only as a control, and left to air-dry overnight. Three to 4 holes were made in the plastic cap to allow for air exchange. Nymphal ticks and adult fleas were then placed directly into the vials using forceps. Vials containing ticks or fleas were placed in desiccators for 24 h at 21° C. and 90% RH. Morbidity and mortality was recorded at 1, 2, 4, 8, and 24 h after initial exposure.

For a further series, the system named is I. scapularis nymphs. Briefly: Tick bioassay, modified disposable pipette method, treated vials (Example 9). The format is in vivo, Ixodes scapularis. The note with it: 24 h exposure, 95% CI in parentheses. Here is the method:
Tick Colonies. […] There was no known pesticide used at this location. Ticks were maintained at 21° C., 90% RH, and received a 16:8 h (light:dark) cycle as described in […]. Med. […] Tick and Flea Bioassays. […] A control treated with acetone only was run with each series. Tick and flea susceptibility was evaluated using a modified disposable pipette method. See, Barnard, D. R., et al., J. Econ. […] Three to 4 holes were made in the plastic cap to allow for air exchange. Nymphal ticks and adult fleas were then placed directly into the vials using forceps. Vials containing ticks or fleas were placed in desiccators for 24 h at 21° C. and 90% RH. […] For each time point, if ticks were incapable of movement, maintaining normal posture, leg coordination, ability to right themselves, or any signs of life, they were considered moribund or dead.

The subject of series [3] is ticks, fleas, and mosquitoes. The series is described as follows: Residual activity, overall statements for ticks, fleas and mosquitoes (Example 9). The note with it: 1 to 4 weeks after treatment.
The subject of a further series is Ae. aegypti adults. Briefly: Mosquito bottle bioassay (Example 9). Format: in vivo. The note with it: 24 h exposure, 95% CI in parentheses. The procedure:
Mosquito Colonies. Aedes aegypti adult mosquitoes were obtained from an existing colony at the Centers for Disease Control and Prevention (CDC), Division of Vector-Borne Infectious Diseases (DVBID), Fort Collins, Colo. This colony has been maintained for over fifteen years with no known history of exposure to pesticides. Mosquitoes were reared at 28° C., 85% RH, and a 14:10 h (light:dark) cycle. Larvae were grown in de-ionized water and fed ground liver powder solution ad libitum. Fourth instars were removed and placed in emergence cages, and adults were fed a 2% sucrose solution until assayed. Adults were exposed to test products at 4–7 d after emergence.
(§4) Mosquit Bioassay. Adult mosquitoes were tested using the bottle bioassay method of Brogden, W. G., and McAllister, J. C., J. Am. Mosq. Control Assoc. 14:159–64 (1998), with minor modifications. Natural product extracts were two-fold serially diluted for a total of 8 concentrations ranging from 0.002% to 0.25% in 1.5 ml of acetone. Individual dilutions were added to 250 ml Wheaton glass bottles and capped. Bottles were manipulated to evenly coat all inner surfaces. The caps were removed and bottles were allowed to air-dry overnight. Once bottles were completely dry, 10–50 adult mosquitoes were aspirated into the bottles. Mosquitoes were held in the bottles for 24 h at 23° C. and 85% RH. Morbidity and mortality were recorded at 15, 30, 45, and 60 min and 24 hour intervals. One bottle for each replicate was treated with acetone only and served as a control. The dose-mortality data was evaluated with probit analysis, using the LdP Line software, to determine LC50 and LC90 values.

The next series relates to Ixodes scapularis nymphs. The series is described as follows: Residual activity, treated vials aged before loading (Example 9). Format: in vivo. Here is the method: (§5) Tick and Flea Bioassays. Concentrations of the compounds were prepared by 2-fold serial dilutions of a 0.5% (wt:vol) solution of the extracts in acetone. The approximate toxicity of individual compounds was determined with a total of 8 doses ranging from 0.002% to 0.25%. […] A control treated with acetone only was run with each series. Tick and flea susceptibility was evaluated using a modified disposable pipette method. See, Barnard, D. R., et al., J. Econ. Entomol. 74:466–69 (1981).
as §3, with “Groups of 10 nymphal I. scapularis and X. cheopis fleas were used in all tests, resulting in a total of 5,240 nymphs and 4,860 fleas exposed to the compounds. The” for “The”

The next series has as its system Aedes aegypti adults. The series is described as follows: Residual activity, treated bottles aged before loading (Example 9). Format: in vivo. Here is the method: as §4
The subject of series [4] is nymphal Ixodes scapularis. Briefly: Treated-vial biocidal screening, 2% acetone solutions (Example 2). Format: in vivo. The settings on record: for I. scapularis nymphs (24 h), number killed/number tested: 2% acetone solution (wt./vol.) dried in vials; for I. scapularis nymphs (72 h), number killed/number tested: treated vials sat 72 h, arthropods added for final 24 h. Here is the method: as §1, §2

The test system of series [5] is ticks, fleas, formicids and termites. Briefly: Persistence of biocidal activity, vials treated with 2% solutions (Example 5). Format: in vivo. Here is the method: as §1
Persistence of biocidal activity was determined for nootkatone and valencene-11,12-epoxide by using the vials as treated with the 2% solutions of Example 2. […] At 11 weeks, the biocidal activity began to dissipate below the 100% mortality level.

For another series, the system named is nymphal I. scapularis. Briefly: Baseline dose-mortality, method of Maupin and Piesman 1994 (Example 7). The settings on record: nymphal ticks. Format: in vivo. The source says:
Baseline dose-mortalities were established for nymphal I. scapularis for nootkatone and valencene-11,12-epoxide using the method described in Maupin, G. O., and Piesman, J., J. Med. Entomol., 31:319–21 (1994).
A comparison of relative potency was made with published data for carbaryl and permethrin (Maupin and Piesman, 1994) and Alaska yellow cedar essential oil (Panella et al., J. Med. Entomol. 34:340–45 (1997) is presented in Table 6.

The test system of series [6] is Xenopsylla cheopis adults. Briefly: Residual activity, treated vials aged before loading (Example 9). The format is in vivo. Here is the method: as §5
as §3, with “Groups of 10 nymphal I. scapularis and X. cheopis fleas were used in all tests, resulting in a total of 5,240 nymphs and 4,860 fleas exposed to the compounds. The” for “The”

Where [7] appears, read: residual activity at 1 week after treatment.
Where [8] appears, read: residual activity at 2 weeks after treatment.
[9] abbreviates: residual activity at 4 weeks after treatment.

In brackets after ≈: the same amount, converted by molar mass. Read-outs that look alike come from different tables or passages of the source.

In the case of `C=C(C)C1CC=C2C=CCC(C)C2(C)C1` (stereo not drawn) [Compound 6, Nootkatene], the “I. scapularis adults (4 wk), number killed/number tested” value in series [1] is reported as 0/5. The “X. cheopis adults (5 wk), number killed/number tested” value in series [2] is 0/5. For the same compound, the LC50 in the series on X. cheopis adults is 0.017 (0.012–0.024) percent concentration, wt:vol; in the series on X. cheopis adults (listed as compound 6) it was 0.017 percent concentration, wt:vol; in the series on I. scapularis nymphs it was 0.011 (0.0086–0.014) percent concentration, wt:vol; in the series with I. scapularis nymphs (listed as compound 6), 0.011 percent concentration, wt:vol; in the series on Ae. aegypti adults it was 0.027 percent concentration, wt:vol; in the series with Ixodes scapularis nymphs (setting [7]), 2.062 percent concentration, wt:vol. Besides, the LC50 in the series on Aedes aegypti adults (setting [7]) is given as 0.132 (0.096–0.236) percent concentration, wt:vol. Further, the LC90 is reported as 0.075 (0.049–0.151) percent concentration, wt:vol in the series on X. cheopis adults; 0.06 (0.043–0.098) percent concentration, wt:vol with I. scapularis nymphs; 0.059 percent concentration, wt:vol with Ae. aegypti adults; 524.656 percent concentration, wt:vol in the series with Ixodes scapularis nymphs (setting [7]); 0.659 (0.329–2.855) percent concentration, wt:vol with Aedes aegypti adults (setting [7]). Also, the entries for the “residual activity (in words)” value in [3] and in [3] (listed as compound 6) were “nearly inactive” and “did not demonstrate any residual activity after one week”, respectively. In addition, in series [4], the “I. scapularis nymphs (24 h), number killed/number tested” value is reported as 10/10. The “I. scapularis nymphs (72 h), number killed/number tested” value in [4] was 4/5.

For the compound `C=C(C)[C@@H]1CCC2=CCC[C@@H](C)[C@]2(C)C1` [Compound 5, Valencene], the “I. scapularis adults (4 wk), number killed/number tested” value in series [1] was 0/5. The “X. cheopis adults (5 wk), number killed/number tested” value in [2] was 0/5. Besides, in the series on X. cheopis adults, the LC50 is 0.041 (0.034–0.049) percent concentration, wt:vol and the LC90 is listed as 0.063 (0.052–0.093) percent concentration, wt:vol. Also, in the series with I. scapularis nymphs, the LC50 is given as 0.598 percent concentration, wt:vol and the LC90 is listed as 44.837 percent concentration, wt:vol. In addition, in the series with Ae. aegypti adults, the LC50 is recorded as 0.015 (0.008–0.029) percent concentration, wt:vol and the LC90 was 0.037 (0.031–0.162) percent concentration, wt:vol. For the same compound, in [4], the “I. scapularis nymphs (24 h), number killed/number tested” value is reported as 10/10 and the “I. scapularis nymphs (72 h), number killed/number tested” value is given as 0/5.

As for `C=C(C)[C@@H]1CCC2=CC(=O)C[C@@H](C)[C@]2(C)C1` [Compound 7, Nootkatone], the “I. scapularis adults (4 wk), number killed/number tested” value in [1] is on record as 5/5. Further, the “X. cheopis adults (5 wk), number killed/number tested” value in series [2] was 5/5. The LC50 was 0.0083 (0.0064–0.01) percent concentration, wt:vol in the series on X. cheopis adults; 0.0029 (0.0025–0.0034) percent concentration, wt:vol with I. scapularis nymphs; 57 µg/mL (≈ 261 µM) in the series on Ae. aegypti adults (Aedes aegypti, 24 h, read-out: LC50); 0.023 percent concentration, wt:vol in the series with Ixodes scapularis nymphs (setting [7]); 0.026 (0.018–0.039) percent concentration, wt:vol in the series with Ixodes scapularis nymphs (setting [8]); 0.026 (0.018–0.039) percent concentration, wt:vol with Ixodes scapularis nymphs (setting [9]). The LC50 in series [6] (setting [7]) is 0.016 (0.012–0.02) percent concentration, wt:vol; in series [6] (setting [8]) it was 0.031 percent concentration, wt:vol; in [6] (setting [9]), 0.031 percent concentration, wt:vol; in the series with Aedes aegypti adults (setting [7]), 0.02 (0.014–0.029) percent concentration, wt:vol; in the series with Aedes aegypti adults (setting [8]) it was 0.019 (0.016–0.022) percent concentration, wt:vol; in the series on Aedes aegypti adults (setting [9]), 0.013 (0.011–0.015) percent concentration, wt:vol. In series [5] (24 hour exposure at each test through 10 weeks, each group of arthropods), this compound yielded a mortality of 100%. For the same compound, the “time at which biocidal activity began to dissipate below the 100% mortality level” value in series [5] (vials treated with 2% solutions) is reported as 11 weeks. Besides, the “residual activity (in words)” value in series [3] is listed as “considerable biological activity”. For the same compound, in the series on nymphal I. scapularis, the “more effective than essential oil of Alaska yellow cedar” value is “about 98%”. Also, in the series on nymphal I. scapularis, the “potency relative to essential oil of Alaska yellow cedar” value was “approximately 50 times”. In addition, the LC90 was 0.13 percent concentration, wt:vol in the series with Ixodes scapularis nymphs (setting [7]); 0.168 (0.094–0.448) percent concentration, wt:vol with Ixodes scapularis nymphs (setting [8]); 0.164 (0.093–0.429) percent concentration, wt:vol in the series with Ixodes scapularis nymphs (setting [9]); 0.05 (0.036–0.081) percent concentration, wt:vol in series [6] (setting [7]); 0.134 percent concentration, wt:vol in [6] (setting [8]); 0.054 (0.041–0.105) percent concentration, wt:vol in the series on Aedes aegypti adults (setting [7]). The LC90 is given as 0.046 (0.037–0.061) percent concentration, wt:vol with Aedes aegypti adults (setting [8]) and 0.038 (0.031–0.051) percent concentration, wt:vol with Aedes aegypti adults (setting [9]). Moreover, the “I. scapularis nymphs (24 h), number killed/number tested” value in series [4] is recorded as 10/10. The “I. scapularis nymphs (72 h), number killed/number tested” value in series [4] is recorded as 5/5.
